Measured values published in patent US20230416168A1 (EUROCHEM ANTWERPEN, priority 2020, published 2023).

System: NH3 or NH2OH oxidation in N. europaea cells
Test: Nitrosomonas europaea ammonia vs. hydroxylamine oxidation assay
Type: cell-based
Details: compounds 50 μM, NO2- after 30 min; for Nitrification from NH2OH (% compared to DMSO): 1 mM NH2OH as N-source; for Nitrification from NH3 (% compared to DMSO): NH4+ 1 mM as N-source
Procedure: Two days old, late-log phase cultures with a NO2− concentration between 10 and 20 mM were washed 3 times in fresh growth medium (without N) and finally 4 times overconcentrated via centrifugation (4000 rpm, 15 min, 4° C.). Transparent, flat bottom 96-well plate (Cat. No. 353072, Falcon® 96 Well Clear Flat Bottom Microplate, Corning®) were filled with 150 μl culture per well using a dispenser (Multidrop™ Combi Reagent Dispenser, Thermo Scientific™). Compounds (final concentration 50 μM) were added in triplicate to the multi-well plate by use of a Tecan robot (Freedom EVO®, Tecan). Thiourea (positive control for inhibition of NH3 oxidation—final concentration 100 μM) and phenylhydrazine hydrochloride (positive control for inhibition of NH2OH oxidation—final concentration 1 mM) were added to the outer two columns. Each plate was made in duplicate to add either 500 μM (NH4)2SO4 (final [NH4+]=1 mM) or 1 mM NH2OH. All plates were separately wrapped in Parafilm. Stacks of 4 plates were put on top of a 96-well plate filled with 100 μl MilliQ per well, covered with aluminum foil and shaken (±150 rpm) at 28° C. To prevent read-out of secondary effects on NO2− production, NO2− was measured only 30 min later. For this, the samples were first 2 times diluted by pipetting 15 μl in 15 μl fresh growth medium in 96-well intermediate plates (Cat. Ref. PCR-96-FS-C, 96-well PCR Microplate, Axygen®) to then mix 15 μl of the diluted samples with 15 μl Griess reagent in the wells of a transparent, flat bottom 384-well plate (Cat. No. X^7001, Low Profile Microplate, Molecular Devices) that was measured spectrophotometrically at 540 nm (EnVision, Perkin Elmer®).
To get insights on the targeted metabolic pathway and to discriminate between compounds that specifically affect NH3 oxidation or that affect another pathway, three representative novel nitrification inhibitors (Examples 1, 5 and 6) were tested in the “ammonia vs hydroxylamine oxidation assay” in which NO2− production from NH3 was compared with NO2− production from NH2OH.

Compound: CN(Cc1nc2ccccc2s1)CN1CCOC1=S [Example 5, 3-[[1,3-benzothiazol-2-ylmethyl(methyl)amino]methyl]-1,3-oxazolidine-2-thione]
- Nitrification from NH2OH (% compared to DMSO): 77%
- Nitrification from NH3 (% compared to DMSO): 17%

Compound: CN(Cc1c(Cl)nc2sccn12)CN1CCSC1=S [Example 1, 3-[[(6-chloroimidazo[2,1-b][1,3]thiazol-5-yl)methyl-methylamino]methyl]-1,3-thiazolidine-2-thione]
- Nitrification from NH2OH (% compared to DMSO): 81%
- Nitrification from NH3 (% compared to DMSO): 12%
